Data from PubChem BioAssay AID256 (DTP/NCI, 2004).
Several values for one entry are separate records, joined by “and”; a condition that tells them apart may be missing. Equal entries are not always repeated. Toxic doses and inconclusive results are not listed. Rule for the calls: active = survival T/C of 150% or more; inactive = T/C below 125% in these data.

Test system: CD2F1 mice, L1210 leukemia ip, survival T/C
Assay: NCI In Vivo Anticancer Drug Screen. Data for tumor model L1210 Leukemia (intraperitoneal) in CD2F1 (CDF1) mice
Conditions: higher = longer survival
Outline: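 Antitumor effect is scored in animals hosting a serially transplanted tumor. Values compare compound-dosed animals against vehicle-only controls as a simple quotient.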

[1] = endpoint: mean survival time, dose: 25.0 mg/kg/injection, schedule: Q01DX009 (ip), vehicle: Klucel (hydroxypropylcellulose) (HPC)
[2] = endpoint: mean survival time, dose: 200.0 mg/kg/injection, schedule: Q01DX009 (ip), vehicle: Klucel (hydroxypropylcellulose) (HPC)
[3] = endpoint: mean survival time, dose: 400.0 mg/kg/injection, schedule: Q01DX009 (ip), vehicle: Klucel (hydroxypropylcellulose) (HPC)
[4] = endpoint: mean survival time, dose: 100.0 mg/kg/injection, schedule: Q04DX003 (ip), vehicle: saline with Tween-80
[5] = endpoint: mean survival time, dose: 200.0 mg/kg/injection, schedule: Q04DX003 (ip), vehicle: saline with Tween-80

Measured: T/C

Nc1nc(N)c2cc(CNc3ccc(C(=O)NC(CC(=O)O)CC(=O)O)cc3)ccc2n1
active: [1] 160 % of control | endpoint: mean survival time, dose: 50.0 mg/kg/injection, schedule: Q01DX009 (ip), vehicle: Klucel (hydroxypropylcellulose) (HPC) 162 % of control and 206 % of control
inactive: [2] 114 % of control and 103 % of control | [3] 96 % of control and 98 % of control

Cc1cc(N(CC(C)Br)CC(C)Br)ccc1N=Nc1ccccc1C(=O)O (centres undefined)
inactive: endpoint: mean survival time, dose: 3.13 mg/kg/injection, schedule: Q01DX009 (ip), vehicle: saline with Tween-80 105 % of control and 112 % of control | endpoint: mean survival time, dose: 6.25 mg/kg/injection, schedule: Q01DX009 (ip), vehicle: Klucel (hydroxypropylcellulose) (HPC) 106 % of control | endpoint: mean survival time, dose: 6.25 mg/kg/injection, schedule: Q01DX009 (ip), vehicle: saline with Tween-80 114 % of control and 117 % of control and 109 % of control | [1] 119 % of control | endpoint: mean survival time, dose: 25.0 mg/kg/injection, schedule: Q01DX009 (ip), vehicle: saline with Tween-80 86 % of control

CC(C)(C)S(=O)(=O)C(C)(C)C
inactive: [4] 98 % of control | [5] 93 % of control | endpoint: mean survival time, dose: 400.0 mg/kg/injection, schedule: Q04DX003 (ip), vehicle: saline with Tween-80 93 % of control

CN(C)N=Nc1ccc(Cl)cc1C(=O)O
inactive: endpoint: mean survival time, dose: 266.0 mg/kg/injection, schedule: Q04DX003 (ip), vehicle: other 114 % of control | endpoint: mean survival time, dose: 400.0 mg/kg/injection, schedule: Q04DX003 (ip), vehicle: other 120 % of control

CCOC(=O)Nc1cc2c(c(N)n1)N=C(c1ccc3ccccc3c1)CN2
inactive: endpoint: median survival time, dose: 0.93 mg/kg/injection, schedule: Q01DX009 (ip), vehicle: saline with Tween-80 122 % of control | endpoint: median survival time, dose: 1.0 mg/kg/injection, schedule: Q01DX009 (ip), vehicle: saline with Tween-80 112 % of control | endpoint: median survival time, dose: 1.87 mg/kg/injection, schedule: Q01DX009 (ip), vehicle: saline with Tween-80 113 % of control | endpoint: median survival time, dose: 3.75 mg/kg/injection, schedule: Q01DX009 (ip), vehicle: saline with Tween-80 121 % of control | endpoint: median survival time, dose: 15.0 mg/kg/injection, schedule: Q01DX009 (ip), vehicle: saline with Tween-80 113 % of control | endpoint: median survival time, dose: 16.0 mg/kg/injection, schedule: Q01DX009 (ip), vehicle: saline with Tween-80 114 % of control

CCCCCCCCCCCCN=C(N)C(N)=NCCCCCCCCCCCC
inactive: endpoint: mean survival time, dose: 25.0 mg/kg/injection, schedule: Q04DX002 (ip), vehicle: other 93 % of control | endpoint: mean survival time, dose: 50.0 mg/kg/injection, schedule: Q04DX002 (ip), vehicle: other 93 % of control | endpoint: mean survival time, dose: 100.0 mg/kg/injection, schedule: Q04DX002 (ip), vehicle: other 116 % of control

C/C=C(\C)c1cc(=O)c2c(C)cc3c(c2o1)C(OC)(OC(C)=O)c1c(O)c(C2CC(C)(N(C)C)C(OC(C)=O)C(C)O2)cc(C2CC(N(C)C)C(OC(C)=O)C(C)O2)c1C3=O (centres undefined)
inactive: endpoint: mean survival time, dose: 50.0 mg/kg/injection, schedule: Q04DX003 (ip), vehicle: saline with Tween-80 112 % of control | [4] 110 % of control | endpoint: mean survival time, dose: 100.0 mg/kg/injection, schedule: Q04DX003 (ip), vehicle: saline 109 % of control | [5] 97 % of control | endpoint: mean survival time, dose: 200.0 mg/kg/injection, schedule: Q04DX003 (ip), vehicle: saline 91 % of control

NC(CSC1(c2ccccc2)c2ccccc2-c2ccccc21)C(=O)O (centres undefined)
inactive: endpoint: mean survival time, dose: 25.0 mg/kg/injection, schedule: Q01DX009 (ip), vehicle: saline 96 % of control | endpoint: mean survival time, dose: 50.0 mg/kg/injection, schedule: Q01DX009 (ip), vehicle: saline 102 % of control | endpoint: mean survival time, dose: 100.0 mg/kg/injection, schedule: Q01DX009 (ip), vehicle: saline 100 % of control | endpoint: mean survival time, dose: 200.0 mg/kg/injection, schedule: Q01DX009 (ip), vehicle: saline 100 % of control | endpoint: mean survival time, dose: 400.0 mg/kg/injection, schedule: Q01DX009 (ip), vehicle: saline 110 % of control

CC1(C)Oc2[nH]c(=O)n(-c3ccc(Cl)cc3)c(=O)c2C1c1ccc(Cl)cc1 (centres undefined)
inactive: endpoint: mean survival time, dose: 100.0 mg/kg/injection, schedule: Q04DX002 (ip), vehicle: saline with Tween-80 102 % of control | endpoint: mean survival time, dose: 200.0 mg/kg/injection, schedule: Q04DX002 (ip), vehicle: saline with Tween-80 105 % of control | endpoint: mean survival time, dose: 400.0 mg/kg/injection, schedule: Q04DX002 (ip), vehicle: saline with Tween-80 109 % of control

O=C(C(=O)c1ccc(Cl)c(Cl)c1)c1ccc(Cl)c(Cl)c1
inactive: endpoint: mean survival time, dose: 100.0 mg/kg/injection, schedule: Q01DX009 (ip), vehicle: Klucel (hydroxypropylcellulose) (HPC) 90 % of control | [2] 91 % of control | [3] 96 % of control

Nc1nc2ccccc2c2c1C(=O)NC2=O
inactive: endpoint: mean survival time, dose: 50.0 mg/kg/injection, schedule: Q01DX009 (ip), vehicle: saline with Tween-80 103 % of control | endpoint: mean survival time, dose: 100.0 mg/kg/injection, schedule: Q01DX009 (ip), vehicle: saline with Tween-80 100 % of control | [4] 95 % of control | endpoint: mean survival time, dose: 200.0 mg/kg/injection, schedule: Q01DX009 (ip), vehicle: saline with Tween-80 96 % of control | [5] 91 % of control
